Results reported in patent publication US5763441A, “Compounds for the treatment of disorders related to vasculogenesis and/or angiogenesis” (Sugen, Inc., priority 1995, dated 1998).

What follows are compounds tested against T1, FLK-1 receptor (Mus musculus, UniProt P35918) (assay: ELISA assay to measure kinase activity of FLK-1 receptor in FLK-1/NIH cells). Settings: not given.
T1 construct: expressed in transfected cells; host or cells: NIH3T3C7#3 cells (FLK-1 infected NIH3T3)
T1 sequence (P35918 20-1345): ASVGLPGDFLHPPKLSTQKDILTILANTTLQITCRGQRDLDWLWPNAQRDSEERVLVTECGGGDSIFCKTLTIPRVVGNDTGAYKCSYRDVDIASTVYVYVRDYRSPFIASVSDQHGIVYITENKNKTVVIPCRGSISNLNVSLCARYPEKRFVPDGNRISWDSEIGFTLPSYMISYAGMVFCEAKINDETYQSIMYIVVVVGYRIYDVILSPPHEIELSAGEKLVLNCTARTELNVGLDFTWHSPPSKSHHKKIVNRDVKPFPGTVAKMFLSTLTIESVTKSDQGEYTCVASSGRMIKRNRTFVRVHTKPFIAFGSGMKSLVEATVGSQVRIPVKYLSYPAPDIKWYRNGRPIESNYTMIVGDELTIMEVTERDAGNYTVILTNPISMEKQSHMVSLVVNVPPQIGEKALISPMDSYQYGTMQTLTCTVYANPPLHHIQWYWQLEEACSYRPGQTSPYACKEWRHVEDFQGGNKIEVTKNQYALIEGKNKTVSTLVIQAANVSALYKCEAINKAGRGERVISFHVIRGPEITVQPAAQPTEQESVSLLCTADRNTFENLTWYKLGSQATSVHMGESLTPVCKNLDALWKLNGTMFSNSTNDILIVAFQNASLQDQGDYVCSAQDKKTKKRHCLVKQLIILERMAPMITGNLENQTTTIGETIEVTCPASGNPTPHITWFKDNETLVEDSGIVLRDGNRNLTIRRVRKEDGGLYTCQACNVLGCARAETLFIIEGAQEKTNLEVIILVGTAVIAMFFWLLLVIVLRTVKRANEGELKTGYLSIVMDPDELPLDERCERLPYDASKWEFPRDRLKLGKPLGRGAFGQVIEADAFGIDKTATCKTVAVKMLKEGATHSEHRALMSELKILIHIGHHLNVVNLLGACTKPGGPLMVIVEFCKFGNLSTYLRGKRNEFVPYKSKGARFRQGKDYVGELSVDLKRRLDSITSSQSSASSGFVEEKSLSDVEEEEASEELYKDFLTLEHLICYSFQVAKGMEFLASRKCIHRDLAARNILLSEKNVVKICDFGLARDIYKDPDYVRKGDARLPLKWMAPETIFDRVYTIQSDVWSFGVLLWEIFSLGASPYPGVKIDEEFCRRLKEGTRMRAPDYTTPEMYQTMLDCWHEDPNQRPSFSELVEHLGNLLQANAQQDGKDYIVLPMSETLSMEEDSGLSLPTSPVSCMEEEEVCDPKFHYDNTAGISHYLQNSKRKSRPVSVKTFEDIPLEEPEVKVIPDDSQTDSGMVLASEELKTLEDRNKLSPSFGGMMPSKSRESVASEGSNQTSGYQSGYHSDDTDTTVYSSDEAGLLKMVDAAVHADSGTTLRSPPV
Format: cell-based, murine
Description: ELISA Assay To Measure Kinase Activity Of FLK-1 Receptor In FLK-1/NIH Cells
An ELISA assay was conducted to measure the kinase activity of the FLK-1 receptor and more specifically, the inhibition or activiation of protein tyrosine kinase activity on the FLK-1 receptor.
k. NIH3T3C7#3 Cells (FLK-1 infected cells);
Protocol. The following protocol was used to conduct the ELISA Assay:
1. Coat Corning 96-well elisa plates with 1.0 ug per well Cappel Anti-rabbit IgG antibody in 0.1M Na2CO3 pH 9.6. Bring final volume to 150 ul per well. Coat plates overnight at 4° C. Plates can be kept up to two weeks when stored at 4° C.
2. Grow cells in 30 ml of Growth media 9DMEM. 2.0 mM L-Glutamine, 10% FBS) until confluent in 150 cm tissue culture dishes at 37° C., 5% CO2.
3. Harvest cells by tyrpsination and seed in Corning 25850 polystyrene 96-well roundbottom cell plates, 25.000 cells/well in 200 uL of growth media.
4. Grow cells at least one day at 37° C., 5% CO2.
5. Wash cells with D-PBS 1X.
6. Add 200 ul/well of starvation media (DMEM, 2.0 mM l-Glutamine, 0.1% FBS). Incubate overnight at 37° C., 5% CO2.
7. Dilute Compounds/Extracts 1:20 in polyproplyene 96 well plates using starvation media. Dilute dimethylsulfoxide 1:20 for use in control wells.
8. Remove starvation media from 96 well cell culture plates and add 162 ul of fresh starvation media to each well.
9. Add 18 ul of 1:20 diluted Compound/Extract dilution (from step #7) to each well plus the 1:20 dimethylsulfoxide dilution to the control wells (+/-VEGF), for a final dilution of 1:200 after cell stimulation. Final dimethylsulfoxide is 0.5%. Incubate the plate at 37° C., 5% CO2 for two hours.
10. Remove unbound antibody from Elisa plates by inverting plate to remove liquid. Wash 3 times with TBSW+0.5% Ethanolamine, pH 7.0. Pat the plate on a paper towel to remove excess liquid and bubbles.
11. Block plates with TBSW+0.5% Ethanolamine, pH 7.0. 150 ul per well. Incubate plate thirty minutes while shaking on a microtiter plate shaker.
12. Wash plate 3 times as described in step 10.
13. Add 0.5 ug/well affinity purified anti-flk-1 polyclonal rabbit antiserum. Bring final volume to 150 ul/well with TBSW+0.5k Ethanolamine pH 7.0. Incubate plate for thirty minutes while shaking.
14. Add 180 μl starvation medium to the cells and stimulate cells with 20 ul/well 10.0 mM Sodium Ortho Vanadate and 500 ng/ml VEGF (resulting in a final concentration of 1.0 mM Sodium Ortho Vanadate and 50 ng/ml VEGF per well) for eight minutes at 37° C., 5% CO2. Negative control wells receive only starvation medium.
15. After eight minutes, media are removed from the cells and washed one time with 200 ul/well PBS.
16. Lyse cells in 150 ul/well HNTG while shaking at room temperature for five minutes. HNTG formulation includes sodium ortho vanadate, sodium pyro phosphate and EDTA.
17. Wash Elisa plate three times as described in step 10.
18. Transfer cell lysates from the cell plate to elisa plate and incubate while shaking for two hours. To transfer cell lysate pipette up and down while scrapping the wells.
19. Wash plate three times as described in step 10.
20. Incubate Elisa plate with 0.02 ug/well UB40 in TBSW+05% ethanolamine. Bring final volume to 150 ul/well. Incubate while shaking for 30 minutes.
21. Wash plate three times as described in step 10.
22. Incubate elisa plate with 1:10,000 diluted EIA grade Goat anti-mouse IgG conjugated horseradish peroxidase in TBSW+0.5% ethanolamine, pH 7.0. Bring final volume to 150 ul/well. Incubate while shaking for thirty minutes.
23. Wash plate as described in step 10.
24. Add 100 ul of ABTS/H202 solution to well. Incubate ten minutes while shaking.
25. Add 100 ul of 0.2M HCL for 0.1M HCL final to stop the colordevelopment reaction. Shake 1 minute at room temperature. Remove bubbles with slow stream of air and read the ELISA plate in an ELISA plate reader at 410 nm.
For `N#C/C(=C\c1cc(O)c(O)c(Br)c1)S(=O)(=O)/C(C#N)=C/c1cc(O)c(O)c(Br)c1` [Compound 12, (E)-2-[1-cyano-2-(5-bromo-3,4-dihydroxyphenyl)ethenylsulfonyl]-3-(3-bromo-4,5-dihydroxyphenyl)acrylonitrile], the IC50 was 7.1 µM. Compound `N#C/C(=C\c1ccc2[nH]ccc2c1)C(=O)c1ccc(O)c(O)c1` [Compound 10, (E)-3-(indol-5-yl)-2-(3,4-dihydroxyphenylcarbonyl)acrylonitrile] has an IC50 of 17.7 µM. Compound `N#C/C(=C\c1cc(O)c(O)c(I)c1)C(=O)NCc1ccccc1` [Compound 6, (E)-2-(benzylaminocarbonyl)-3-(3-iodo-4,5-dihydroxyphenyl)acrylonitrile] has an IC50 of 21.2 µM. `Cc1cc2ncc(Nc3ccc(Cl)c(Cl)c3)nc2cc1C` [Compound 17, 2-(3,4-dichlorophenylamino)-6,7-dimethylquinoxaline] showed an IC50 of 15 µM. `c1ccc(-c2cnc3cc4ccccc4cc3n2)cc1` [Compound 23, 2-phenyl-1,4-diaza-anthracene] was tested, and the IC50 was 4.4 µM. `CCCNc1nc2ccccc2nc1Cl` [Compound 19, 2-(n-propylamino)-3-chloroquinoxaline] gave an IC50 of 25.6 µM. Compound `N#CC(C#N)=NNc1cccc(Cl)c1` [Compound 22] has an IC50 of 2.3 µM. `N#CCS(=O)(=O)/C(C#N)=C/c1cc(O)c(O)c(Br)c1` [Compound 26, (E)-2-cyanomethylsufonyl-3-(3-bromo-4,5-dihydroxyphenyl)acrylonitrile] gave an IC50 of 11 µM. For `Cc1cc2ncc(Nc3ccc(I)cc3)nc2cc1C` [Compound 13, 2-[(4-iodophenyl)amino]-6,7-dimethyl quinoxaline], the IC50 was 10.4 µM. Compound `N#C/C(=C\c1ccc(O)c(O)c1)C(=O)NCCCCNC(=O)/C(C#N)=C/c1ccc(O)c(O)c1` [Compound 8, (E,E)-2-[[4-[[1-cyano-2-(3,4-dihydroxyphenyl)ethenyl]carbonylamino]-n-butyl]aminocarbonyl]-3-(3,4-dihydroxyphenyl)acrylonitrile] has an IC50 of 10.8 µM. Work on `COC(=O)c1ccc(NCc2cc(O)ccc2O)cc1` [Compound 24, N-(2,5-dihydroxylbenzyl)-4-methoxycarbonylaniline] yielded an IC50 of 28.9 µM. For `Oc1cccc(Nc2ncnc3ccccc23)c1` [Compound 18, 4-(3-hydroxyphenylamino)-quinazoline], the IC50 was 34.6 µM. `Cc1ccc(Sc2ncnc3ccc(C)cc23)cc1` [Compound 20] gave an IC50 of 17.8 µM. Compound `CC1c2nc3ccccc3c(=O)n2C(c2ccc(O)cc2)N1Cc1ccccc1` (stereo not drawn) [Compound 27] has an IC50 of 3.4 µM. Compound `Cc1cc2ncc(-c3ccc(O)c(O)c3)nc2cc1C` [Compound 14, 2-(3,4-dihydroxyphenyl) -6,7-dimethylquinoxaline] has an IC50 of 9.3 µM. With `Cc1ccc2ncnc(Nc3cccc(O)c3)c2c1` [Compound 16, 4-(3-hydroxyphenylamino)-6-methylquinazoline] the IC50 was 35.1 µM. Work on `CC(C)(C)c1cc(/C=C(/C#N)c2[nH]nc(N)c2C#N)cc(C(C)(C)C)c1O` [Compound 4, (E)-2-[(3-amino-4-cyano)pyrazo-5-yl]-3-(3,5-di-t-butyl-4-hydroxyphenyl)acrylonitrile] yielded an IC50 of 8.9 µM. With `COc1cc2nc(Cl)nc(Nc3cccc(Cl)c3)c2cc1OC` [Compound 21, 2-chloro-4-(3-chlorophenylamino)-6,7-dimethoxyquinazoline] the IC50 was 9.9 µM. `CC(C)c1cc(/C=C(\C#N)C(=S)NCCCc2ccccc2)cc(C(C)C)c1O` [Compound 11, (E)-2-[3-phenyl-n-propylaminothiocarbonyl]-3-(3,5-diisopropyl-4-hydroxyphenyl)acrylonitrile] showed an IC50 of 9.8 µM. Compound `Cc1cc2ncc(Nc3cccc(Cl)c3)nc2cc1C` [Compound 28, 2-(3-chlorophenylamino)-6,7-dimethylquinoxaline] has an IC50 of 16 µM. For `N#CC(C(=O)Nc1cccc(C(F)(F)F)c1)C(=S)Nc1ccccc1Cl` (stereo not drawn) [Compound 25, N-(2-chlorophenyl)-2-cyano-2-(N-3-trifluorophenylamino-carbonyl)-thioacetamide], the IC50 was 8.5 µM.

Same assay, conditions: FLK-1R ELISA, VEGF-stimulated FLK-1/NIH cells
Compound `N#C/C(=C\c1ccc(O)c(O)c1)C(=O)NCCNC(=O)/C(C#N)=C/c1ccc(O)c(O)c1` [Compound 7] has an IC50 of 37.5 µM. In the case of `N#C/C(=C\c1ccc(O)c(O)c1)S(=O)(=O)/C(C#N)=C/c1ccc(O)c(O)c1` [Compound 9], the IC50 is reported as 27.4 µM. In the case of `N#C/C(=C\c1cc(O)c(O)c(I)c1)C(=O)NCCCc1ccccc1` [Compound 3], the IC50 is reported as 4.9 µM.

Same assay, conditions: FLK-1R ELISA, VEGF-stimulated FLK-1/NIH cells; read-out: IC50
With `CC(C)(C)c1cc(/C=C(\C#N)C(N)=S)cc(C(C)(C)C)c1O` [Compound 1, (E)-2-aminothiocarbonyl-3 (3,5-di-t-butyl-4-hydroxyphenyl)acrylonitrile] the IC50 was 0.8 µM.

These compounds were tested on Calu-6 (assay: Tumor xenograft growth inhibition, Calu-6 (lung)). Settings: 20 mg/kg/day.
Format: in vivo, human
Text: The ability of one of the compounds of the present invention, leflunomide (Compound 40), to inhibit ovarian, melanoma, prostate, lung and mammary tumor cell lines established as SC xenografts was examined. […]
The tumor cells were implanted subcutaneously into the indicated strains of mice. Treatment was initiated on day 1 post implantation unless otherwise indicated (e.g. treatment of the SCID mouse related to the A375 melanoma cell line began on Day 9). Eight (8) to ten (10) mice comprised each test group.
Animals. Female athymic mice (BALB/c, nu/nu), BALB/c mice, Wistar rats and Fisher 344 rats were obtained from Simonsen Laboratories (Gilroy, Calif.). Female A/I mice were obtained from Jackson Laboratory (Bar Harbor, Me.). DA rats were obtained from B&K Universal, Inc. (Fremont, Calif.). Athymic R/Nu rats, DBA/2N mice, and BALB/c mice were obtained from Harlan Sprague Dawley (Indianapolis, Ind.). Female C57BL/6 mice were obtained from Taconic (Germantown, N.Y.). All animals were maintained under clean-room conditions in Micro-isolator cages with Alpha-dri bedding. They received sterile rodent chow and water ad libitum.
Subcutaneous Xenograft Model. Cell lines were grown in appropriate medium as described (See Section 6). Cells were harvested at or near confluency with 0.05% Trypsin-EDTA and pelleted at 450×g for 10 min. Pellets were resuspended in sterile PBS or media (without FBS) to a suitable concentration indicated in the Figure legends and the cells were implanted into the hindflank of mice. Tumor growth was measured over 3 to 6 weeks using venier calipers tumor volumes were calculated as a product of length x width x height unless otherwise indicated. P values were calculated using the Students' t-test. su101 in 50-100 uL excipient (dimethylsulfoxide, PBTE, PBTE6C:D5W, or PBTE:D5W) was delivered by IP injection at concentrations indicated in the Figure legends.
`N#C/C(=C\c1cc(O)c(O)c(Br)c1)S(=O)(=O)/C(C#N)=C/c1cc(O)c(O)c(Br)c1` [Compound 12, (E)-2-[1-cyano-2-(5-bromo-3,4-dihydroxyphenyl)ethenylsulfonyl]-3-(3-bromo-4,5-dihydroxyphenyl)acrylonitrile] was tested, and the “inhibition, CALU-6 (in words)” value was “no detectable inhibition”. `c1ccc(-c2cnc3cc4ccccc4cc3n2)cc1` [Compound 23, 2-phenyl-1,4-diaza-anthracene] was tested, and the “inhibition, CALU-6” value was 41%. `N#CC(C#N)=Cc1cc(O)c(O)c(I)c1` [Compound 2, (E)-2-cyano-3-(3-iodo-4,5-hydroxyphenyl)acrylonitrile] was tested, and the “inhibition, CALU-6 (in words)” value was “no detectable inhibition”. In the case of `CC(C)(C)c1cc(/C=C(/C#N)c2[nH]nc(N)c2C#N)cc(C(C)(C)C)c1O` [Compound 4, (E)-2-[(3-amino-4-cyano)pyrazo-5-yl]-3-(3,5-di-t-butyl-4-hydroxyphenyl)acrylonitrile], the “inhibition, CALU-6 (in words)” value is reported as “no significant inhibition”.

Same assay, conditions: 40 mg/kg/day
In the case of `N#CC(C#N)=Cc1cc(O)c(O)c(I)c1` [Compound 2, (E)-2-cyano-3-(3-iodo-4,5-hydroxyphenyl)acrylonitrile], the “inhibition, CALU-6 (in words)” value is reported as “no detectable inhibition”.
